The values below come from publication PMC12458545, “Repurposing a Detrimental Antibody Epitope as Targeted Therapeutics for Sepsis and Rheumatoid Arthritis” (Research Square, 2025).

For one assay, the system named is CLP-induced sepsis. Nature of the assay: CLP sepsis survival. The format is in vivo, Balb/C mice. On the procedure: Experimental sepsis was induced in Balb/C mice via cecal ligation and puncture (CLP) as previously described,[30],[37]. […] Briefly, mice were anesthetized intramuscularly with ketamine (75 mg/kg, Henry Schein Animal Health, Dublin, Ohio) and xylazine (10 mg/kg, Sigma-Aldrich) before a midline abdominal incision was made in the lower left abdomen. The cecum was ligated with a 4–0 silk suture at 50% of its length from the distal end, and punctured twice with a 21-gauge needle to induce moderate to severe sepsis. The cecum was returned to the abdominal cavity, and the incision was closed in layers. Approximately 30 min post-CLP, animals received imipenem/cilastatin (0.5 mg/mouse, Primaxin, Merck & Co., Inc.) and 1.0 mL of sterile saline for fluid resuscitation. Animals were randomized to control vehicle and experimental groups, administered P2 or P2–1 intraperitoneally at indicated doses and time points, and monitored for survival rates. To elucidate P2–1’s protective mechanisms, a separate group of Balb/C mice underwent CLP and received P2–1 (1.0 mg/kg) at 2 h and 20 h post-CLP. At 24 h post-CLP, animals were euthanized to collect blood and measure serum cytokines and chemokines using murine Cytokine Antibody Arrays.
All data were first assessed for normality using the Shapiro-Wilk test before applying the appropriate statistical analyses. All data are presented as mean ± standard error of the mean (SEM) unless otherwise specified. For comparison among multiple groups with non-normal (skewed) distribution, the Kruskal-Wallis ANOVA test followed by Dunn’s post-hoc test was used to evaluate statistical differences. Survival curves were analyzed using Kaplan-Meier method and compared using the nonparametric log-rank (Mantel-Cox) test. Statistical significance was defined as a P value less than 0.05.

Assay [1] relates to collagen antibody-induced arthritis (CAIA). Nature of the assay: CAIA arthritis severity clinical score. The format is in vivo, Balb/C mice. The following applies: P2–1 i.p. daily Day 6 to Day 9; male and female mice; vs. saline vehicle. On the procedure: (§1) The CAIA model was performed in Balb/C mice (8–10 weeks old) as described previously. On Day 0, mice received i.p. injection of 2 mg anti-collagen II mAb cocktail (α-II, Chondrex, Inc., Redmond, WA). On Day 3, mice received i.p. injection of 30 μg LPS (Escherichia coli O111:B4; Sigma-Aldrich) to activate inflammation and synchronize arthritis onset. Mice were randomized, and therapeutic agents (P2–1 peptide or pCTS-L-neutralizing mAb2) were administered i.p. daily from Day 6 to Day 9. Arthritis severity was scored daily using a clinical scoring system [0 – 4 per paw: 0 = normal; 1 = mild redness and swelling in a single joint type (ankle, wrist, or individual digits); 2 = moderate redness and swelling affecting two joint types; 3 = severe redness and swelling involving across all three joint types; 4 = maximal redness and swelling of the entire paw that obscured joint definition].

Assay [2] relates to CAIA-induced mechanical allodynia. Nature of the assay: CAIA pain sensitivity, Von Frey filaments. As to conditions: P2–1 i.p. daily Day 6 to Day 9; 50% paw withdrawal threshold, up-down method. The format is in vivo, Balb/C mice. On the procedure: as §1
Mechanical allodynia was assessed using Von Frey filaments (Stoelting Co., Wood Dale, IL) applied to the plantar surface of the hind paws as previously described,[82]. Mice were habituated in individual transparent enclosures on an elevated wire mesh platform. […] The “up-down” method determined the 50% paw withdrawal threshold, defined as the force required to elicit a withdrawal response in 50% of applications.

The test system of assay [3] is CAIA-induced joint tissue cytokines and chemokines. Nature of the assay: CAIA joint tissue inflammation, Cytokine Antibody Arrays. The format is in vivo, Balb/C mice. The following applies: P2–1, harvested Day 10; for joint tissue inflammation (array overall): representative arrays, four vehicle- and four P2-1-treated mice. On the procedure: as §1
Levels of cytokines and chemokines in mouse serum and joint tissue lysates, or human PBMC culture supernatants were determined using murine or human Cytokine Antibody Arrays (e.g., Cat. No. M0308003 or Cat. No. AAH-CYT-3–4, RayBiotech Inc., Norcross, GA, USA) as previously described,[30],[86],[87]. Serum samples were collected from mice at 24 h post-CLP. The soft tissue of the hindpaw and ankle joints was carefully collected using a previously described protocol. Briefly, 0.5 g of fresh soft tissue was cut into 3 mm pieces, and mixed with 400 μL of a hypertonic solution (500 mL PBS with 4.5 g NaCl and 2× protease inhibitor cocktail) in a 10 mL syringe. Mechanical extrusion, involving 30 rapid back-and-forth movements of the plunger, was then performed. The expelled extracellular fluid was collected, immediately aliquoted, and stored at −20°C until analysis. Cell-conditioned medium was collected from PBMC cultures after 16 h of stimulation. Arrays were performed according to the manufacturer’s protocol, followed by chemiluminescent detection and densitometric quantification as previously described,[30].

In the next assay the target is T1, Recombinant human HMGB1 (Homo sapiens, UniProt P09429).
T1 construct: made in house; host or cells: E. coli BL21 (DE3) pLysS
T1 sequence (P09429 1-215): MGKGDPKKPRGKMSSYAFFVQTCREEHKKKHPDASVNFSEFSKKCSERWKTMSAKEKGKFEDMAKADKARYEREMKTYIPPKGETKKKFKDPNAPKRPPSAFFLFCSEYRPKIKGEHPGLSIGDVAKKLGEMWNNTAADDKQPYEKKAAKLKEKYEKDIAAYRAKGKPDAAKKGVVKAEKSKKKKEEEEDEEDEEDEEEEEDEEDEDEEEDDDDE
Nature of the assay: SPR (OpenSPR) binding to immobilized HMGB1. As to conditions: immobilized HMGB1, HBS-P buffer; Fig. 5A; Mean ± SEM, n = 2 independent experiments. The method, then:
Binding kinetics between HMGB1 and P2–1 were measured using Nicoya Life Science gold nanoparticle-based OpenSPR technology (Kitchener, ON, Canada) as previously described,[84]. Recombinant human HMGB1 was immobilized onto a Carboxyl sensor chip, and P2–1 peptide was flowed over immobilized HMGB1 at various concentrations in HBS-P buffer (GE Healthcare). Response units were recorded over time, and binding affinity was estimated as the equilibrium dissociation constant KD using Trace Drawer Kinetic Data Analysis v.1.6.1 (Nicoya Life Science).

“Also recorded” adds a separate entry of the source.

In general, Kd refers to the concentration at which binding is half-saturated. Consider “54-TKVH(Nle)KSFLAFQTKT-69 [P2–1, water-soluble derivative of TN peptide P2 with Met to Norleucine and Cys to Ser substitutions]”, for which, in the assay with CLP-induced sepsis (Fig. 2C, P2–1 0.1 mg/kg, delayed administration (24 h and 48 h post-CLP), no asterisk), the “animal survival (# of Survivors)” value is given as 60%. The “survival” value with CLP-induced sepsis (P2–1 0.1 mg/kg at 2 h, 20 h, 28 h, 44 h, and 52 h post-CLP, 0.1 mg/kg) is reported as “conferred significant protection against lethal sepsis”. Besides, in the assay with CLP-induced sepsis (P2–1 0.1 mg/kg i.p. at 2 h, 20 h, 28 h, 44 h, and 52 h post-CLP, P < 0.05 vs. control), the “animal survival (# of Survivors)” value is 70%. The “survival” value with CLP-induced sepsis (P2–1 1.0 mg/kg, delayed, 24 h and 48 h post-CLP, 1 mg/kg) was “provided potent protection against lethal sepsis; also recorded: rescued mice from lethal sepsis”. In the assay on CLP-induced sepsis (delayed, P2–1 1.0 mg/kg i.p. at 24 h and 48 h post-CLP, P < 0.05 vs. vehicle), the “animal survival (# of Survivors)” value stood at 90%. The arthritis severity entry in assay [1] is “dose-dependently and significantly attenuated”. The “pain sensitivity (paw mechanical withdrawal threshold)” value in assay [2] is reported as “significantly reduced CAIA-induced pain sensitivity by partially restoring paw mechanical withdrawal thresholds”. For the same substance, in assay [3], the “joint tissue MIP-1γ/CCL9/10” value is recorded as “reduced levels; also recorded: significant reduction”, the “joint tissue VCAM-1” value is on record as “reduced levels; also recorded: significant reduction”, the “joint tissue sTNFRI” value is recorded as “reduced levels; also recorded: significant reduction” and the “joint tissue sTNFRII” value is “reduced levels; also recorded: significant reduction”. Besides, the “joint tissue inflammation (array overall)” value in assay [3] is on record as “significantly reduced CAIA-induced joint tissue inflammation”. Moreover, in assay [3] (listed as P2-1), the “joint tissue inflammation (array overall)” value was “reduction in various inflammatory cytokines and chemokines”. The Kd at Recombinant human HMGB1 stood at 0.0241 ± 0.00935 µM.
